Experimental data taken from PubChem BioAssay AID1259411 (Chemical Carcinogenesis Research Information System (CCRIS), 2018).
Activity calls are given as the source filed them. How the calls were made is not given here.

Test system: rodent carcinogenicity bioassays, tumor incidence
Assay: CCRIS carcinogenicity studies
Outline: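 Archive of carcinogenicity, mutagenicity, tumor promotion and tumor inhibition results drawn from journals, NCI reports and other sources, expert-reviewed; covers 1985-2011 and is no longer updated.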

For `CCCCN(CCCCO)N=O`, the carcinogen call (Species: MOUSE, Strain/Sex: B6C3F1/MALE, Route: ORAL, Dose: 0, 0.05% IN DRINKING WATER FOR 12 WK (STUDY DURATION: 20 WK), Tumor Site: Type of Lesion: BLADDER: SQUAMOUS CELL CARCINOMA) was “active; positive”, the carcinogen call (Species: MOUSE, Strain/Sex: B6D2F1/FEMALE, Route: ORAL, Dose: 0, 523 MG/L IN DRINKING WATER FOR 13 WK (STUDY DURATION: 28 WK), Tumor Site: Type of Lesion: URINARY BLADDER: TUMOR) was “active; positive” and the carcinogen call (Species: MOUSE, Strain/Sex: B6D2F1/MALE, Route: ORAL, Dose: 0, 0.05% IN DRINKING WATER FOR 26 WK (STUDY DURATION: 26 WK), Tumor Site: Type of Lesion: URINARY BLADDER: TRANSITIONAL CELL CARCINOMA) was “active; positive”. For the same compound, the carcinogen call (Species: MOUSE, Strain/Sex: B6D2F1/MALE, Route: ORAL, Dose: 0, 5 MG TWICE/WK BY GAVAGE FOR 10 WK (STUDY DURATION: 30 WK), Tumor Site: Type of Lesion: URINARY BLADDER: TRANSITIONAL CELL CARCINOMA) was “active; positive”, the carcinogen call (Species: MOUSE, Strain/Sex: B6D2F1/MALE, Route: ORAL, Dose: 0, 523 MG/L IN DRINKING WATER FOR 13 WK (STUDY DURATION: 28 WK), Tumor Site: Type of Lesion: URINARY BLADDER: TUMOR) was “active; positive” and the carcinogen call (Species: MOUSE, Strain/Sex: DS/SHI/MALE, Route: ORAL, Dose: 0, 0.05% IN DRINKING WATER FOR 12 WK (STUDY DURATION: 20 WK), Tumor Site: Type of Lesion: BLADDER: TRANSITIONAL CELL CARCINOMA) was “active; positive”. For the same compound, the carcinogen call (Species: MOUSE, Strain/Sex: NON/SHI/MALE, Route: ORAL, Dose: 0, 0.05% IN DRINKING WATER FOR 4 WK (STUDY DURATION: 36 WK), Tumor Site: Type of Lesion: KIDNEY: TRANSITIONAL CELL CARCINOMA PAPILLOMA, BLADDER: TRANSITIONAL CELL CARCINOMA) was “active; positive”, the carcinogen call (Species: MOUSE, Strain/Sex: NON/SHI/MALE, Route: ORAL, Dose: 0, 0.05% IN DRINKING WATER FOR 12 WK (STUDY DURATION: 20 WK), Tumor Site: Type of Lesion: KIDNEY: TRANSITIONAL CELL CARCINOMA, SQUAMOUS CELL CARCINOMA, BLADDER: TRANSITIONAL CELL CARCINOMA) was “active; positive” and the carcinogen call (Species: Mouse, Strain/Sex: Nrf2-/-, p53+/-, Nrf2-/-::p53+/-, and wild type, Route: Oral, Dose: 0.05% in drinking water for 8 wk, study duration 8 wk) was “urinary bladder: carcinoma, 63.0% in nrf2-/- mice, 75.8% in p53+/- mice, 89.6% i”. For the same compound, the carcinogen call (Species: RAT, Strain/Sex: ACI/MALE, Route: ORAL, Dose: 0, 0.05% IN DRINKING WATER FOR 4-24 WK, Tumor Site: Type of Lesion: URINARY BLADDER: PAPILLOMA, TRANSITIONAL CELL CARCINOMA, SQUAMOUS CELL CARCINOMA) was “active; positive”, the carcinogen call (Species: RAT, Strain/Sex: F344/MALE, Route: ORAL, Dose: 0, 0.05% IN DRINKING WATER FOR 10 WK (STUDY DURATION: 20 WK), Tumor Site: Type of Lesion: URINARY BLADDER: TRANSITIONAL CELL CARCINOMA) was “active; positive” and the carcinogen call (Species: RAT, Strain/Sex: F344/MALE, Route: ORAL, Dose: 0, 1, 5, 10, 50 PPM IN DRINKING WATER FOR 112 WK (STUDY DURATION: 112 WK), Dose: 0, 1, 5, 10, 50 PPM IN DRINKING WATER FOR 112 WK (STUDY DURATION: 112 WK), Tumor Site: Type of Lesion: BLADDER: CARCINOMA, PAPILLOMA) was “active; positive”.
In the case of `CCCl`, the carcinogen call (Species: MOUSE, Strain/Sex: B6C3F1/FEMALE, Route: INHALATION, Dose: 0, 15000 PPM IN AIR 6 HR/D 5 D/WK FOR 100 WK (STUDY DURATION: 100 WK), Tumor Site: Type of Lesion: LIVER: HEPATOCELLULAR CARCINOMA, LIVER: HEPATOCELLULAR ADENOMA OR CARCINOMA, UTERUS: CARCINOMA, Tumor Site: Type of Lesion: LIVER: HEPATOCELLULAR CARCINOMA, LIVER: HEPATOCELLULAR ADENOMA OR CARCINOMA, UTERUS: CARCINOMA) is reported as “active; positive”, the carcinogen call (Species: Mouse, Strain/Sex: B6C3F1/Female (50/Group), Route: Inhalation, Dose: 0, 15,000 ppm 6 hr/d, 5 d/wk for 100 wk, Tumor Site: Type of Lesion: Uterus: carcinoma (2% vs 90%, p<10-8), Uterus: lymphoma (2% vs 14%, p=0.03), Liver: adenoma and carcinoma (6% vs 17%, p=, Tumor Site: Type of Lesion: Uterus: carcinoma (2% vs 90%, p<10-8), Uterus: lymphoma (2% vs 14%, p=0.03), Liver: adenoma and carcinoma (6% vs 17%, p=) is reported as “active; positive” and the carcinogen call (Species: Mouse, Strain/Sex: B6C3F1/Male (50/Group), Route: Inhalation, Dose: 0, 15,000 ppm 6 hr/d, 5 d/wk for 100 wk) is reported as “inactive; negative”. The carcinogen call (Species: RAT, Strain/Sex: F344/FEMALE, Route: INHALATION, Dose: 0, 15000 PPM IN AIR 6 HR/D 5 D/WK FOR 102 WK (STUDY DURATION: 102 WK), Tumor Site: Type of Lesion: BRAIN: ASTROCYTOMA) was “equivocal”, the carcinogen call (Species: RAT, Strain/Sex: F344/MALE, Route: INHALATION, Dose: 0, 15000 PPM IN AIR 6 HR/D 5 D/WK FOR 102 WK (STUDY DURATION: 102 WK), Tumor Site: Type of Lesion: SKIN: TRICHOEPITHELIOMA, SEBACEOUS GLAND ADENOMA OR BASAL CELL CARCINOMA) was “equivocal” and the carcinogen call (Species: Rat, Strain/Sex: F344/Female (50/Group), Route: Inhalation, Dose: 0, 15,000 ppm 6 hr/d, 5 d/wk for 102 wk) was “inactive; negative”. For the same compound, the carcinogen call (Species: Rat, Strain/Sex: F344/Male (50/Group), Route: Inhalation, Dose: 0, 15,000 ppm 6 hr/d, 5 d/wk for 102 wk) was “inactive; negative”.
With `CCCCC(CC)CO` (stereo unspecified) the carcinogen call (Species: MOUSE, Strain/Sex: B6C3F1/FEMALE, Route: GAVAGE, Dose: 0, 50, 200, 750 MG/KG/D 5 D/WK FOR 18 MO (STUDY DURATION: 18 MO), Dose: 0, 50, 200, 750 MG/KG/D 5 D/WK FOR 18 MO (STUDY DURATION: 18 MO)) was “inactive; negative”, the carcinogen call (Species: MOUSE, Strain/Sex: B6C3F1/MALE, Route: GAVAGE, Dose: 0, 50, 200, 750 MG/KG/D 5 D/WK FOR 18 MO (STUDY DURATION: 18 MO), Dose: 0, 50, 200, 750 MG/KG/D 5 D/WK FOR 18 MO (STUDY DURATION: 18 MO)) was “inactive; negative” and the carcinogen call (Species: RAT, Strain/Sex: F344/FEMALE, Route: GAVAGE, Dose: 0, 50, 150, 500 MG/KG/D 5 D/WK FOR 24 MO (STUDY DURATION: 24 MO), Dose: 0, 50, 150, 500 MG/KG/D 5 D/WK FOR 24 MO (STUDY DURATION: 24 MO)) was “inactive; negative”. For the same compound, the carcinogen call (Species: RAT, Strain/Sex: F344/MALE, Route: GAVAGE, Dose: 0, 50, 150, 500 MG/KG/D 5 D/WK FOR 24 MO (STUDY DURATION: 24 MO), Dose: 0, 50, 150, 500 MG/KG/D 5 D/WK FOR 24 MO (STUDY DURATION: 24 MO)) was “inactive; negative”.
For `Nc1ccccc1C(=O)OC/C=C/c1ccccc1`, the carcinogen call (Species: MOUSE, Strain/Sex: B6C3F1/FEMALE, Route: ORAL, Dose: 0, 15000, 30000 PPM IN DIET FOR 103 WK (STUDY DURATION: 105-107 WK), Dose: 0, 15000, 30000 PPM IN DIET FOR 103 WK (STUDY DURATION: 105-107 WK), Tumor Site: Type of Lesion: LIVER: HEPATOCELLULAR ADENOMA OR CARCINOMA) was “active; positive”, the carcinogen call (Species: MOUSE, Strain/Sex: B6C3F1/MALE, Route: ORAL, Dose: 0, 15000, 30000 PPM IN DIET FOR 103 WK (STUDY DURATION: 105-107), Dose: 0, 15000, 30000 PPM IN DIET FOR 103 WK (STUDY DURATION: 105-107), Tumor Site: Type of Lesion: LIVER: HEPATOCELLULAR ADENOMA OR CARCINOMA) was “active; positive” and the carcinogen call (Species: RAT, Strain/Sex: F344/FEMALE, Route: ORAL, Dose: 0, 15000, 30000 PPM IN DIET FOR 103 WK (STUDY DURATION: 105-107 WK), Dose: 0, 15000, 30000 PPM IN DIET FOR 103 WK (STUDY DURATION: 105-107 WK)) was “inactive; negative”. For the same compound, the carcinogen call (Species: RAT, Strain/Sex: F344/MALE, Route: ORAL, Dose: 0, 15000, 30000 PPM IN DIET FOR 103 WK (STUDY DURATION: 105-107), Dose: 0, 15000, 30000 PPM IN DIET FOR 103 WK (STUDY DURATION: 105-107), Tumor Site: Type of Lesion: PANCREAS: ACINAR CELL ADENOMA OR CARCINOMA, KIDNEY (CORTEX): ADENOMA OR ADENOCARCINOMA (NOS)) was “active; positive”.
In the case of `COC(=O)C1=C(C)NC(C)=C(C(=O)OCCc2ccc(N3CCN(C(c4ccccc4)c4ccccc4)CC3)cc2)C1c1cccc([N+](=O)[O-])c1` (stereo unspecified), the carcinogen call (Species: MOUSE, Strain/Sex: B6C3F1/FEMALE, Route: ORAL, Dose: 0, 30, 90, 300 PPM IN DIET FOR 18 MO (STUDY DURATION: 18 MO), Dose: 0, 30, 90, 300 PPM IN DIET FOR 18 MO (STUDY DURATION: 18 MO)) is reported as “inactive; negative”, the carcinogen call (Species: MOUSE, Strain/Sex: B6C3F1/MALE, Route: ORAL, Dose: 0, 30, 90, 300 PPM IN DIET FOR 18 MO (STUDY DURATION: 18 MO), Dose: 0, 30, 90, 300 PPM IN DIET FOR 18 MO (STUDY DURATION: 18 MO)) is reported as “inactive; negative” and the carcinogen call (Species: RAT, Strain/Sex: F344/FEMALE, Route: ORAL, Dose: 0, 30, 90, 300 PPM IN DIET FOR 24 MO (STUDY DURATION: 24 MO), Dose: 0, 30, 90, 300 PPM IN DIET FOR 24 MO (STUDY DURATION: 24 MO)) is reported as “inactive; negative”. The carcinogen call (Species: RAT, Strain/Sex: F344/MALE, Route: ORAL, Dose: 0, 30, 90, 300 PPM IN DIET FOR 24 MO (STUDY DURATION: 24 MO), Dose: 0, 30, 90, 300 PPM IN DIET FOR 24 MO (STUDY DURATION: 24 MO)) was “inactive; negative”.
